In assay [1] the target is T1, Mitogen-activated protein kinase 10 (Homo sapiens, UniProt P53779). The assay is described as follows: Inhibition of JNK3 (unknown origin) using ATF2 as substrate incubated for 40 mins in presence of [gamma33P]ATP by scintillation counting analysis.
The target in assay [2] is T2, Mitogen-activated protein kinase 9 (Homo sapiens, UniProt P45984). The experiment in a line: Inhibition of JNK2 (unknown origin) incubated for 20 mins in presence of 33P-ATP.
Target sequence in this assay (P45984 whole entry): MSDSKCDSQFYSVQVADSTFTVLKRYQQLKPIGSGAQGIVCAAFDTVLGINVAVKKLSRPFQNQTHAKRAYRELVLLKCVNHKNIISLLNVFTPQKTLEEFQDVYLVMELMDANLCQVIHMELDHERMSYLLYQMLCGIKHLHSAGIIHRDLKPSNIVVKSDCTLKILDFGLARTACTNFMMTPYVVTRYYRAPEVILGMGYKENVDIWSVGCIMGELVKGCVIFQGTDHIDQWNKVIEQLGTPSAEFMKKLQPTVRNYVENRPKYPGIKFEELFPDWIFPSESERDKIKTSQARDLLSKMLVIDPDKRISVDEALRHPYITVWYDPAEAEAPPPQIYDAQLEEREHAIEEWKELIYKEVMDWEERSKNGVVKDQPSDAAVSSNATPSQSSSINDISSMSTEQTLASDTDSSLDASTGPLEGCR
The target in assay [3] is T3, Mitogen-activated protein kinase 8 (Homo sapiens, UniProt P45983). The assay is described as follows: Inhibition of JNK1 (unknown origin) incubated for 20 mins in presence of 33P-ATP.
T3 sequence (P45983 whole entry): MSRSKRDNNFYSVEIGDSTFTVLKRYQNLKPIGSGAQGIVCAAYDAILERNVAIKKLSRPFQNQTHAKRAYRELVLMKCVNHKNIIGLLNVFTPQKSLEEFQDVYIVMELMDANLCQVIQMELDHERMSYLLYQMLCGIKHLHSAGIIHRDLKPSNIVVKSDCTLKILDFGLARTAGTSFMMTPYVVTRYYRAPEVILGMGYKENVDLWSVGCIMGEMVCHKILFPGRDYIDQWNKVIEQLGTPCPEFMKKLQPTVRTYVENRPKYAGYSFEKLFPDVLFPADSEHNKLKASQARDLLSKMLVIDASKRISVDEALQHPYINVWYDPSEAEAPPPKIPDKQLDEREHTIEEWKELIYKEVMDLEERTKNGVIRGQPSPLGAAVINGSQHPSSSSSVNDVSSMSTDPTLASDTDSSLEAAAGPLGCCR
Assay [4] addresses Glycogen synthase kinase-3 beta (Homo sapiens, UniProt P49841). The assay is described as follows: Inhibition of GSK3beta (unknown origin) incubated for 20 mins in presence of 33P-ATP.
In assay [5] the target is T4, Mitogen-activated protein kinase 14 (Homo sapiens, UniProt Q16539). The assay is described as follows: Inhibition of p38alpha (unknown origin) incubated for 20 mins in presence of 33P-ATP.
T4 sequence (Q16539 whole entry): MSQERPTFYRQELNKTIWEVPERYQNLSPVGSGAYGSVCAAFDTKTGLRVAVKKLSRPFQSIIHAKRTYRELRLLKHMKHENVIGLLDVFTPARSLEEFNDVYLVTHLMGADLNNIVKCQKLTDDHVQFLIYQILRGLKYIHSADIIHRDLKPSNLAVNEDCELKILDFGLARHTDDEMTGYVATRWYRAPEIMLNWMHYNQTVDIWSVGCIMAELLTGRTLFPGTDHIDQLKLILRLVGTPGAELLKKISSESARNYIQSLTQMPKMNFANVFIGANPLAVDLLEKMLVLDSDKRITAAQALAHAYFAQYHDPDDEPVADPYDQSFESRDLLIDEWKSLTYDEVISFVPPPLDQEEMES
For assay [6], the target named is T1, Mitogen-activated protein kinase 10. The assay is described as follows: Inhibition of JNK3 (unknown origin) at 1 uM relative to control.
In assay [7] the target is T3, Mitogen-activated protein kinase 8. The assay is described as follows: Inhibition of JNK1 (unknown origin) at 1 uM relative to control.
Assay [8] concerns the target T2, Mitogen-activated protein kinase 9. The assay is described as follows: Inhibition of JNK2 (unknown origin) at 1 uM relative to control.
Target sequence in this assay (P45984 whole entry, looked up): as the sequence (P45984 whole entry) above
Assay [9] concerns the target T4, Mitogen-activated protein kinase 14. The experiment in a line: Inhibition of p38alpha (unknown origin) at 1 uM relative to control.
Assay [10] concerns the target Mitogen-activated protein kinase 10 (Rattus norvegicus) (UniProt P49187). The experiment in a line: Inhibition of JNK3 in primary rat cortex neuron cells assessed as reduction in Abeta1-42 induced c-Jun phosphorylation by Western blotting analysis. In kind it is cell-based. The note with it: Primary cortical neuron.
Assay [11] shares this target. The assay is described as follows: Inhibition of JNK3 in primary rat cortex neuron cells assessed as reduction in Abeta1-42 induced APP phosphorylation by Western blotting analysis. In kind it is cell-based. To be noted: Primary cortical neuron. For orientation: In western blotting, separated proteins are transferred to a membrane and probed.
The subject of assay [12] is Cortical neurone. The assay is described as follows: cells. The note with it: Rattus norvegicus, 120 h, read-out: Activity.
The nature of assay [13]: Selectivity ratio of IC50 for inhibition of JNK1 (unknown origin) to IC50 for inhibition of JNK3 (unknown origin).
Assay [14] can be described thus: Selectivity ratio of IC50 for inhibition of GSK3beta (unknown origin) to IC50 for inhibition of JNK3 (unknown origin).
Assay [15] in a line: Selectivity ratio of IC50 for inhibition of p38alpha (unknown origin) to IC50 for inhibition of JNK3 (unknown origin).
The test system of assay [16] is Cortical neurone. The assay is described as follows: Neuroprotective activity against Abeta42-induced neuronal apoptosis in Sprague-Dawley rat primary cortical neuron cells assessed as cell viability at 20 uM preincubated for 90 mins followed by Abeta42 addition for 24 hrs and measured on day 5 by MTT assay (reference value: 52%). In kind it is functional. To be noted: 120 h, time 5 day, read-out: Activity.

Each structure is given as a SMILES string. Active and inactive are the calls of the source. The calls are words filed in the database; no cut-off is given here.

Chain of Mitogen-activated protein kinase 10 (Rattus norvegicus) (P49187 whole entry): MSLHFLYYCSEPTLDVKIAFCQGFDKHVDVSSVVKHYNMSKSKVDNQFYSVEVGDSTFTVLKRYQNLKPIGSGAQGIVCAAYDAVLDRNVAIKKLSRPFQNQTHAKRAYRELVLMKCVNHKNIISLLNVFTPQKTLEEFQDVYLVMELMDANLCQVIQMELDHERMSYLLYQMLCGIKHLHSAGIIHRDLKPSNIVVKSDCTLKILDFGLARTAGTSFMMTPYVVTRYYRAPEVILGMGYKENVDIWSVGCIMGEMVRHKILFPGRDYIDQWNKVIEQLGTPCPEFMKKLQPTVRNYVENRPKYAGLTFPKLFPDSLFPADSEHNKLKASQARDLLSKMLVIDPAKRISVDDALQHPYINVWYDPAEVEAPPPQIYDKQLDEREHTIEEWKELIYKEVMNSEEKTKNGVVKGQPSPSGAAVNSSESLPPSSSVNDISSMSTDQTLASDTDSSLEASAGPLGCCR
T1 sequence (P53779 whole entry): as the sequence (P49187 whole entry) above, with H27Q, S32Y, V33I, V34A counted along it
Chain of Glycogen synthase kinase-3 beta (P49841 whole entry): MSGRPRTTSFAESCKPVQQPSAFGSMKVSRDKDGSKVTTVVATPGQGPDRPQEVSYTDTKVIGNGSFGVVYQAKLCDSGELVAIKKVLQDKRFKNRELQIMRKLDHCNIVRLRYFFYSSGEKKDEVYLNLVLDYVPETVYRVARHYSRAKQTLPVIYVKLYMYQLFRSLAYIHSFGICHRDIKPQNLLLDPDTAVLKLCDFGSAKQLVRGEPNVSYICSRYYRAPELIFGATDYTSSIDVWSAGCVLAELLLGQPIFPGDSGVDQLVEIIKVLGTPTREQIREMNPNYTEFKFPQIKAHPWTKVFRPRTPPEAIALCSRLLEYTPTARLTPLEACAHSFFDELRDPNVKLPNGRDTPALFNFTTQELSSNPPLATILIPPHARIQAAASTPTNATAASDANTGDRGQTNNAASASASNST

As a reminder, the IC50 is the point on the concentration scale where inhibition reaches its midpoint. Broadly, the inhibition is the share of the control response that was lost under treatment. For `NC(=O)C1Cc2nc(-c3ccc(Cl)c(Cl)c3)n(-c3ccnc(N[C@H]4CCCN(C(=O)C5CC5)C4)n3)c2C1` (stereo partly drawn), the IC50 turned out to be 0.379 nM in assay [1]; 29.4 nM in assay [2]; 82.7 nM in assay [3]; 3890 nM in assay [4]; 216 nM in [5]. Further, the inhibition is 100% in [6], 80% in assay [7], 80% in assay [8] and 80% in [9]. The inhibition entry in [10] and in [11] was “Active” in each case. The viability at 10 µM with Cortical neurone [12] was found to be 62.9%.
Take `CNC(=O)C1Cc2nc(-c3ccc4ccccc4c3)n(-c3ccnc(N[C@H]4CCCN(C(=O)C5CC5)C4)n3)c2C1` (stereo partly drawn): the half-inhibitory concentration (IC50) stood at 0.564 nM in assay [1]; 7.56 nM in assay [2]; 14.4 nM in assay [3]; 1800 nM in assay [4]; 751 nM in [5]. Moreover, the inhibition in assay [6] worked out at 100%; in assay [7] it was 80%; in assay [8] it was 80%; in assay [9], 80%. Besides, the Ratio IC50 in assay [13], in [14] and in assay [15] was above 100 in each case.
Regarding `CCOC(=O)C1Cc2nc(-c3ccc4ccccc4c3)n(-c3ccnc(N[C@H]4CCCN(C(=O)C5CC5)C4)n3)c2C1` (stereo partly drawn), the IC50 is 0.716 nM in assay [1]; 13 nM in assay [2]; 32.5 nM in assay [3]; 2250 nM in [4]; 291 nM in assay [5]. Besides, the inhibition entry in assay [10] and in assay [11] was “Active” in each case. Moreover, the viability at 10 µM in the assay with Cortical neurone [12] worked out at 55.7%.
As to `Oc1ccc(/C=C/c2cc(O)cc(O)c2)cc1` [RESVERATROL], in the assay on Cortical neurone [16], the viability at 20 µM was determined as 84.2%.

Values taken from ChEMBL document CHEMBL5385856, “Novel 1,4,5,6-tetrahydrocyclopenta[d]imidazole-5-carboxamide-based JNK3 inhibitors: Design, synthesis, molecular docking, and therapeutic potential in neurodegenerative diseases” (Eur J Med Chem, 2023).
